According to BindingDB's records for patent US8822500 (Chembridge, 2014):

Molecular target: ALK tyrosine kinase receptor (Homo sapiens, UniProt Q9UM73)
Experiment: In Vitro Kinase Activity Assay
Settings: pH 7.5

Chain of ALK tyrosine kinase receptor (Q9UM73 whole entry): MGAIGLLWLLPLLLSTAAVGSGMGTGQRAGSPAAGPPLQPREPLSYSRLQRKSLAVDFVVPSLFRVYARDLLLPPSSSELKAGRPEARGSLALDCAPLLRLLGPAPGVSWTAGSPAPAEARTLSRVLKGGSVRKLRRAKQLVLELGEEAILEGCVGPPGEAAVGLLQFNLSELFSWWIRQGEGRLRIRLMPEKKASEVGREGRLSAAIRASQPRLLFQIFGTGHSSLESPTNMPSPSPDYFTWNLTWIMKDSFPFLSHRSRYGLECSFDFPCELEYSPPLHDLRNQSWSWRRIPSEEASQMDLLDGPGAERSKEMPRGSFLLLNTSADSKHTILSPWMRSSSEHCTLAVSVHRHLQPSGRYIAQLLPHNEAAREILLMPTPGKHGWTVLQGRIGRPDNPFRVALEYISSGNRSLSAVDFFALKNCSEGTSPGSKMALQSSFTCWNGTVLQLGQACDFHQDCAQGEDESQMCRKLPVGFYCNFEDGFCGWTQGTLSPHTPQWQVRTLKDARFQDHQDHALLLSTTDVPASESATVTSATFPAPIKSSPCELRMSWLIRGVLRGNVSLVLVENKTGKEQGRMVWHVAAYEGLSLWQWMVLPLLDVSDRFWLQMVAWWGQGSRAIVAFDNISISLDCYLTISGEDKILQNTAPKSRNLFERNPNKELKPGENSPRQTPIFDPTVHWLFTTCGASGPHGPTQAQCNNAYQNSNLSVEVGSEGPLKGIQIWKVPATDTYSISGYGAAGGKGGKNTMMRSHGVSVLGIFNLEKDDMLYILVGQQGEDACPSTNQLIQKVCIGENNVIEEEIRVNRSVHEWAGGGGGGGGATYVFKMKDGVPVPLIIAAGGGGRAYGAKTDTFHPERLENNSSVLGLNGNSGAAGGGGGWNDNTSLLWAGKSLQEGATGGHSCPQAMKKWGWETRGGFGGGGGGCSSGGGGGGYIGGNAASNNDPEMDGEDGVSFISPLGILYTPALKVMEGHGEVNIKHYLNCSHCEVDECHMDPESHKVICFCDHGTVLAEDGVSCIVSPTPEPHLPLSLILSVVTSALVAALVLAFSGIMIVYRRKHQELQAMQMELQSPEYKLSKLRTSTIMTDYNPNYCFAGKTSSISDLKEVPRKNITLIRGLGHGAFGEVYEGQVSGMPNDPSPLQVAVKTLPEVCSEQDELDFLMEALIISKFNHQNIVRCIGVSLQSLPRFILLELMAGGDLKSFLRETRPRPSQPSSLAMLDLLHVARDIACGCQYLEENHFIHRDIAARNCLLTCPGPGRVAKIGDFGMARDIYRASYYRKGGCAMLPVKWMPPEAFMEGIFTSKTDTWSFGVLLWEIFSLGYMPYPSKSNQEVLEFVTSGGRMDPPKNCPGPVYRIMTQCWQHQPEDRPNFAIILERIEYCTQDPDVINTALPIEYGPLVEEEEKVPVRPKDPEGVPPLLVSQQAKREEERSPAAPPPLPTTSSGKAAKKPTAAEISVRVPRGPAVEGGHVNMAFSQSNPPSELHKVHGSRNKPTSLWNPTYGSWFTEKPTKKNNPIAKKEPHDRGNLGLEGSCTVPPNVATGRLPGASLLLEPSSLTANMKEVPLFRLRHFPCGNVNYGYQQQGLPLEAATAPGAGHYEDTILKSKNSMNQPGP

- IC50: 15.1 nM
Structure (SMILES): CC(Cc1cc(F)ccc1F)Nc1cc[nH]c(=O)c1-c1nc2cc3c(cc2[nH]1)C(=O)N(C1CCN(C)CC1)C3=O (stereo unspecified) [US8822500, [28]]
